Source: ChEMBL document CHEMBL3885881, “DrugMatrix”

Species: Rattus norvegicus
Experiment: DrugMatrix - Regimen: Daily Repeat
Type: toxicity, organism-based, Sprague-Dawley
Design: regimen Daily Repeat, gender Male, age 6-8 weeks
Settings: in vivo, iv, vehicle 100 % SALINE; for ABSOLUTE BASOPHIL / ABSOLUTE EOSINOPHIL / ABSOLUTE LYMPHOCYTE / ABSOLUTE MONOCYTE / ABSOLUTE SEGMENTED NEUTROPHIL / BASOPHIL / EOSINOPHIL / ERYTHROCYTE COUNT / HEMATOCRIT / HEMOGLOBIN / LEUKOCYTE COUNT / LYMPHOCYTE / MEAN CORPUSCULAR HEMOGLOBIN / MEAN CORPUSCULAR HEMOGLOBIN CONCENTRATION / MEAN CORPUSCULAR VOLUME / MONOCYTE / NEUTROPHIL / NUCLEATED RED BLOOD CELLS / PLATELET COUNT: tissue Blood; for ALANINE AMINOTRANSFERASE / ALBUMIN / ALKALINE PHOSPHATASE / ASPARTATE AMINOTRANSFERASE / BLOOD UREA NITROGEN / CARBON DIOXIDE / CHLORIDE / CHOLESTEROL / CREATINE PHOSPHOKINASE / CREATININE / GLUCOSE / LACTATE DEHYDROGENASE / LIPASE / PHOSPHORUS / POTASSIUM / SODIUM / TOTAL BILIRUBIN / TOTAL PROTEIN / URIC ACID: tissue Plasma
[1] = 0 mg/kg, 72 h, dose level Control, time 3 day
[2] = 0 mg/kg, 120 h, dose level Control, time 5 day
[3] = 23 mg/kg, 72 h, dose level Low, time 3 day

Nc1ccn([C@@H]2O[C@H](CO)[C@@H](O)[C@@H]2O)c(=O)n1 [CYTARABINE]
ABSOLUTE BASOPHIL [1]: 0 CELLS/uL | ABSOLUTE EOSINOPHIL [1]: 0 CELLS/uL | ABSOLUTE LYMPHOCYTE [1]: 7855.5 CELLS/uL | ABSOLUTE MONOCYTE [1]: 36.17 CELLS/uL | ABSOLUTE SEGMENTED NEUTROPHIL [1]: 575 CELLS/uL | BASOPHIL [1]: 0% | EOSINOPHIL [1]: 0% | ERYTHROCYTE COUNT [1]: 5.14 x10E6/uL | HEMATOCRIT [1]: 33.22% | HEMOGLOBIN [1]: 12.97 G/DL | LEUKOCYTE COUNT [1]: 8.47 x10E3/uL | LYMPHOCYTE [1]: 93.17% | MEAN CORPUSCULAR HEMOGLOBIN [1]: 25.28 pg | MEAN CORPUSCULAR HEMOGLOBIN CONCENTRATION [1]: 39.05 G/DL | MEAN CORPUSCULAR VOLUME [1]: 64.75 fL | MONOCYTE [1]: 0.33% | NEUTROPHIL [1]: 6.5% | NUCLEATED RED BLOOD CELLS [1]: 0 /100WBC | PLATELET COUNT [1]: 1092 x10E3/uL | ALANINE AMINOTRANSFERASE [1]: 61.67 u/L | ALBUMIN [1]: 4.03 G/DL | ALKALINE PHOSPHATASE [1]: 292.33 u/L | ASPARTATE AMINOTRANSFERASE [1]: 100.83 u/L | BLOOD UREA NITROGEN [1]: 11 mg/dL | CARBON DIOXIDE [1]: 34.67 mmol/L | CHLORIDE [1]: 100.25 MEQ/L | CHOLESTEROL [1]: 71.17 mg/dL | CREATINE PHOSPHOKINASE [1]: 554.5 u/L | CREATININE [1]: 0.31 mg/dL | GLUCOSE [1]: 151 mg/dL | LACTATE DEHYDROGENASE [1]: 88.67 u/L | LIPASE [1]: 18.83 u/L | PHOSPHORUS [1]: 10.42 mg/dL | POTASSIUM [1]: 5.7 MEQ/L | SODIUM [1]: 144.57 MEQ/L | TOTAL BILIRUBIN [1]: 0.17 mg/dL | TOTAL PROTEIN [1]: 5.8 G/DL | URIC ACID [1]: 0.52 mg/dL | ABSOLUTE BASOPHIL [2]: 0 CELLS/uL | ABSOLUTE EOSINOPHIL [2]: 53.33 CELLS/uL | ABSOLUTE LYMPHOCYTE [2]: 7739.83 CELLS/uL | ABSOLUTE MONOCYTE [2]: 74.83 CELLS/uL | ABSOLUTE SEGMENTED NEUTROPHIL [2]: 832 CELLS/uL | BASOPHIL [2]: 0% | EOSINOPHIL [2]: 0.67% | ERYTHROCYTE COUNT [2]: 5.55 x10E6/uL | HEMATOCRIT [2]: 34.77% | HEMOGLOBIN [2]: 13.62 G/DL | LEUKOCYTE COUNT [2]: 8.7 x10E3/uL | LYMPHOCYTE [2]: 89.17% | MEAN CORPUSCULAR HEMOGLOBIN [2]: 24.6 pg | MEAN CORPUSCULAR HEMOGLOBIN CONCENTRATION [2]: 39.2 G/DL | MEAN CORPUSCULAR VOLUME [2]: 62.78 fL | MONOCYTE [2]: 0.67% | NEUTROPHIL [2]: 9.5% | NUCLEATED RED BLOOD CELLS [2]: 0 /100WBC | PLATELET COUNT [2]: 1096 x10E3/uL | ALANINE AMINOTRANSFERASE [2]: 50 u/L | ALBUMIN [2]: 4.02 G/DL | ALKALINE PHOSPHATASE [2]: 271.17 u/L | ASPARTATE AMINOTRANSFERASE [2]: 84.17 u/L | BLOOD UREA NITROGEN [2]: 13.33 mg/dL | CARBON DIOXIDE [2]: 27 mmol/L | CHLORIDE [2]: 99 MEQ/L | CHOLESTEROL [2]: 68 mg/dL | CREATINE PHOSPHOKINASE [2]: 313.67 u/L | CREATININE [2]: 0.21 mg/dL | GLUCOSE [2]: 163 mg/dL | LACTATE DEHYDROGENASE [2]: 75.67 u/L | LIPASE [2]: 11.5 u/L | PHOSPHORUS [2]: 9.62 mg/dL | POTASSIUM [2]: 5.45 MEQ/L | SODIUM [2]: 143.1 MEQ/L | TOTAL BILIRUBIN [2]: 0.2 mg/dL | TOTAL PROTEIN [2]: 6.08 G/DL | URIC ACID [2]: 0.68 mg/dL | ABSOLUTE BASOPHIL [3]: 0 CELLS/uL | ABSOLUTE EOSINOPHIL [3]: 0 CELLS/uL | ABSOLUTE LYMPHOCYTE [3]: 6967 CELLS/uL | ABSOLUTE MONOCYTE [3]: 31.33 CELLS/uL | ABSOLUTE SEGMENTED NEUTROPHIL [3]: 568.33 CELLS/uL | BASOPHIL [3]: 0% | EOSINOPHIL [3]: 0% | ERYTHROCYTE COUNT [3]: 5.13 x10E6/uL | HEMATOCRIT [3]: 33.67% | HEMOGLOBIN [3]: 13.23 G/DL | LEUKOCYTE COUNT [3]: 7.57 x10E3/uL | LYMPHOCYTE [3]: 92% | MEAN CORPUSCULAR HEMOGLOBIN [3]: 25.8 pg | MEAN CORPUSCULAR HEMOGLOBIN CONCENTRATION [3]: 39.3 G/DL | MEAN CORPUSCULAR VOLUME [3]: 65.53 fL | MONOCYTE [3]: 0.33% | NEUTROPHIL [3]: 7.67% | NUCLEATED RED BLOOD CELLS [3]: 0 /100WBC | PLATELET COUNT [3]: 1145.33 x10E3/uL | ALANINE AMINOTRANSFERASE [3]: 52 u/L | ALBUMIN [3]: 4.23 G/DL | ALKALINE PHOSPHATASE [3]: 313.33 u/L | ASPARTATE AMINOTRANSFERASE [3]: 91.67 u/L | BLOOD UREA NITROGEN [3]: 11.67 mg/dL | CARBON DIOXIDE [3]: 32.33 mmol/L | CHLORIDE [3]: 99.5 MEQ/L | CHOLESTEROL [3]: 73 mg/dL | CREATINE PHOSPHOKINASE [3]: 427 u/L | CREATININE [3]: 0.31 mg/dL | GLUCOSE [3]: 163 mg/dL | LACTATE DEHYDROGENASE [3]: 93 u/L | LIPASE [3]: 13.33 u/L | PHOSPHORUS [3]: 11.2 mg/dL | POTASSIUM [3]: 5.61 MEQ/L | SODIUM [3]: 143.75 MEQ/L | TOTAL BILIRUBIN [3]: 0.1 mg/dL | TOTAL PROTEIN [3]: 6.17 G/DL | URIC ACID [3]: 0.83 mg/dL
